Assay results from patent publication US9394308B2, “Inhibiting the transient receptor potential A1 ion channel” (Merck Sharp & Dohme Corp., priority 2013, dated 2016).
Entries after “also recorded” stand apart in the source; their conditions may differ.

What was measured:
CFA Cold Allodynia = assay: Rodent cold plate pain model, Complete Freund's Adjuvant (Example 4); assay type: in vivo; settings: rat
Description: CFA-induced pain test method reported in del Camino et al., J. Neurosci., 30 (45):15165-15174, incorporated herein by reference in its entirety. Briefly, the right hind paw is sensitized to cold temperature (allodynic) by administering 0.1 mL of Complete Freund's Adjuvant (CFA) to that paw. Two to four days later, the time it takes for the animal to lift its CFA-injected paw from the cold surface is recorded compared to its un-injected normal left hind paw. […] To avoid tissue damage, the maximum cut-off time is five minutes. Animals that are allodynic (average PWL to the first three pain behaviors<150 seconds for the CFA-injected hind paw: ˜≧50% difference between the normal and CFA-injected paw) are included in the study and subsequently randomized across treatment groups. The following day, the animals in some groups are dosed with a test compound under blinded conditions. Following the one to two hour pre-treatment time, the post-dose PWL readings are taken again. The efficacy of the drug treatment is assessed by comparing the PWL in the drug treatment animals to those that receive the vehicle.

[1] = Rodent acute tolerability test, liver function tests (Example 5); assay type: in vivo, Female Sprague Dawley rats; settings: rat; for LFT blood levels ALT and AST (in words): intravenous bolus, about 24 hours post dose; for serum biomarkers of hepatotoxicity (in words): in vivo
Description: Compounds of Formula (I) were assessed for acute tolerability in a rodent model at dose levels ranging from 100-200 mg/kg based upon the minimum efficacious dose of each compound. Female Sprague Dawley rats were administered up to a 10 mL/kg dose volume of each compound in 0.9% saline at appropriate concentrations as an intravenous bolus via the lateral tail vein. The animals were observed immediately post dose and for up to twenty four hours post dose and clinical observations were recorded. Additionally, approximately twenty four hours post dose animals were euthanized and blood taken for serum chemistry analysis with a focus on liver function tests (LFTs). The maximum tolerated single dose and LFT results are summarized in Table 3 in FIG. 3, where ( ? ) indicates blood levels of markers for potential liver damage within normal range and (↑) indicates blood levels of markers for potential liver damage elevated above normal range. Referring to the data in Table 3, LFT blood levels of markers for potential liver damage remained within normal range for the compounds of Formula (I), while LFTs were elevated for Comparator Compounds including 5-10 fold elevation above normal for ALT and AST blood levels observed upon administration of Comparator Compound 1.

[2] = Aqueous solubility (Example 2); assay type: physicochemical; settings: method of Example 2
Description: Compounds of Formula (I) where R^1 is —CH2—R^1a, and R^1a is phosphate, have suitable levels of aqueous solubility for incorporation in a pharmaceutical composition formulated for intravenous administration. Unless otherwise indicated, the aqueous solubility of compounds of Formula (I) in Tables in FIG. 1 was measured using the procedure of Example 2 (Kerns, E. H., Journal of Pharmaceutical Sciences 2001, 90, 1838-1858, incorporated herein by reference). Solubility data was obtained by this method for compounds of Formula (I) and included in FIG. 1. The chromatographic data was performed using (type of HPLC). The column used was an Xbridge Shield RP18 with the following column dimensions: 4.6×30 mm, 3.5 μm. The mobile phase consisted of deionized water (MPA) with trifluoroacetic acid added in at 0.1% (v/v) (MPC) and HPLC-grade acetonitrile (MPB). The mobile phase flow rate was 2.5 mL/min with the column and sampling operating at ambient temperature. UV detection was set to 280 nm. For all samples used for solubility determination, the mobile phase gradient used was as follows in Table 1g below.
Stock solutions of compounds of Formula (I) where R^1 is —CH2—R^1a, and R^1a is phosphate, were prepared in water at 20 mg/mL. Stock solutions of the compounds of Formula (I), wherein R^1 is hydrogen, were prepared in dimethyl acetamide at 20 mg/mL. […]

| Compound | LFT blood levels ALT and AST (in words) [1] | serum biomarkers of hepatotoxicity (in words) [1] | other results |
| --- | --- | --- | --- |
| C[C@@H](C(=O)N(COP(=O)([O-])O)c1cccc(-c2cnc(N3CCC[C@H]3C(F)(F)F)nc2)n1)n1cnc2c1c(=O)n(C)c(=O)n2C.[Na+] [Compound 1-A, ((S)-2-(1,3-dimethyl-2,6-dioxo-1,2,3,6-tetrahydro-7H-purin-7-yl)-N-(6-(2-((S)-2-(trifluoromethyl)pyrrolidin-1-yl)pyrimidin-5-yl)pyridin-2-yl)propanamido)methyl dihydrogen phosphate] | did not result in abnormally high levels of LFT compounds ALT or AST |  | effect on cold allodynia (in words) (CFA Cold Allodynia; CFA cold plate model): analgesic effect on cold allodynia; also recorded: reversal of CFA Cold Allodynia; Paw Withdrawal Latency (PWL) (in words) (CFA Cold Allodynia; i.p. administration, CFA model, cold plate 1° C.): increased rodent Paw Withdrawal Latency |
| C[C@@H](C(=O)N(COP(=O)(O)O)c1cncc(-c2cnc(N3CCC[C@H]3C(F)(F)F)nc2)n1)n1cnc2c1c(=O)n(C)c(=O)n2C [Compound 2-E, ((S)-2-(1,3-dimethyl-2,6-dioxo-1,2,3,6-tetrahydro-7H-purin-7-yl)-N-(6-(2-((S)-2-(trifluoromethyl)pyrrolidin-1-yl)pyrimidin-5-yl)pyrazin-2-yl)propanamido)methyl dihydrogen phosphate] | did not result in abnormally high levels of LFT compounds ALT or AST |  |  |
| C[C@@H](C(=O)N(COP(=O)(O)O)c1cncc(-c2cnc(N3CCCC3(C)C)nc2)n1)n1cnc2c1c(=O)n(C)c(=O)n2C [Compound 3-J, (S)-(2-(1,3-dimethyl-2,6-dioxo-1,2,3,6-tetrahydro-7H-purin-7-yl)-N-(6-(2-(2,2-dimethylpyrrolidin-1-yl)pyrimidin-5-yl)pyrazin-2-yl)propanamido)methyl dihydrogen phosphate] | did not result in abnormally high levels of LFT compounds ALT or AST |  |  |
| C[C@H]1CCCN1c1ccc(-c2csc(NC(=O)Cn3cnc4c3c(=O)n(C)c(=O)n4C)n2)cc1F [Comparator Compound 1, reference compound] |  | elevate the serum biomarkers of hepatotoxicity |  |
| C[C@H]1CCCN1c1ncc(-c2cccc(NC(=O)Cn3cnc4c3c(=O)n(C)c(=O)n4C)n2)cn1 [Comparator Compound 2, reference compound] |  | did not elevate the serum biomarkers of hepatotoxicity | aqueous solubility (in words) [2]: undesirably low aqueous solubility |
| C[C@H]1CCCN1c1ncc(-c2cncc(N(COP(=O)(O)O)C(=O)[C@H](C)n3cnc4c3c(=O)n(C)c(=O)n4C)n2)cn1 [((S)-2-(1,3-dimethyl-2,6-dioxo-1,2,3,6-tetrahydro-7H-purin-7-yl)-N-(6-(2-((S)-2-methylpyrrolidin-1-yl)pyrimidin-5-yl)pyrazin-2-yl)propanamido)methyl dihydrogen phosphate] | did not result in abnormally high levels of LFT compounds ALT or AST |  |  |
